Reference: article PMC10644391, “Targeted Reversible Covalent Modification of a Noncatalytic Lysine of the Krev Interaction Trapped 1 Protein Enables Site-Directed Screening for Protein–Protein Interaction Inhibitors” (ACS Pharmacology & Translational Science, 2023)

How the values were obtained:
HEG1-KRIT1 PPI [1] = details: previously reported data; read-out: HEG1-KRIT1 IC50, flow cytometry assay; cited from earlier work
HEG1-KRIT1 PPI [2] = target: T1, HEG1-KRIT1 PPI (Homo sapiens, UniProt O00522); test: HEG1-KRIT1 PPI fluorescence polarization (FP) time-resolved assay; format: biochemical
T1 construct: a recombinant FERM domain (residues 417–736) of KRIT1; made in house; host or cells: E. coli
Experimental: To evaluate the binding kinetics of HNA inhibitors, a fluorescence polarization (FP) time-resolved assay that uses a recombinant FERM domain (residues 417–736) of KRIT1 and a fluorescence-tagged HEG1 cytoplasmic tail (Cy5-HEG1 7-mer peptide) was developed (Supporting Information). Using HNA as a test compound, the FP data, expressed as millipolarization (mP) units, were obtained every 10 min over the course of 4–7 h. […] Thus, for practical purposes, a 4-h incubation time was established as the standard assay time for non-kinetic IC50 evaluations.
Fluorescence Polarization Assay and Optimization
The KRIT1 FERM domain (residues 417-736) was cloned into plasmid and recombinantly expressed in E. coli as previously described,1 while the Cy5-HEG1 7- mer peptide bearing the Cy5 dye as fluorescent probe was prepared by and purchased from GenScript (New Jersey, US). HEPES- buffered saline (HBS) buffer was supplemented (0.01%) with detergent Triton X -100 to minimize protein adsorption to the microplate. The assay was setup in a 96-well plate plated with 80 nM KRIT1, 4 nM Cy5- HEG1 probe, and either non-tagged HEG1 peptide or HNA as inhibitor (in 5% DMSO). To account for background fluorescence that could interfere with the assay, background wells with only test compound and Cy5 -HEG1 probe (no KRIT1) were also plated. The FP data, expressed as millipolarization (mP) units, were obtained […]
course of 4-7 hours (for kinetic characterization) using a Tecan Spark® Multimode Microplate Reader. The background mP (no KRIT1) was subtracted from mP to account for background fluorescence. All assays were done in triplicates.
Several FP assay conditions were optimized. First, the HEG1 probe engagement of KRIT1 was examined and its interaction was determined to be rapid equilibrium, thus any observed time dependance in response when an inhibitor displaces the probe is the result of inhibitor exchange kinetics and not that of the probe. Next, the affinity of KRIT1 for the probe (Kd) was examined by following the change in polarization signal as a function of a matrix of five probe concentrations and four KRIT1 concentrations (Figure S1B ). A global fit of equation 3 to polarization responses of the inhibitor vs KRIT1 concentration […]
even after 7 hours of incubation. For practical purposes, we have chosen 4 hours as our standard incubation time since it appeared that most of the inhibition has been reached at this time point. The kinetic characterization of HNA as a HEG1- KRIT1 inhibitor will be discussed in greater detail in the kinetic section […]
values to those obtained from the flow cytometry assay. Finally, to assess the robustness of the FP assay, […]
a robust assay) representing an excellent assay with clear differences between positive and negative controls.2 Evaluation of HEG1-KRIT1 inhibitors prior to the optimization of the FP assay were done using flow cytometry, while subsequent compounds were evaluated using the FP assay. All subsequent assay plates included HNA as comparison and control.
Figure S1. Optimization of fluorescence polarization (FP) assay.
HEG1-KRIT1 inhibition. (B) Optimization of KRIT1 protein and Cy5 -HEG1 probe concentrations. Dose-response curve of HNA obtained via fluorescence polarization (C) and flow cytometry (D) assays show […]
All assays were tested in technical duplicates or triplicates in at least 2 different

KLF2 = system: KLF2; parameters: method as in PMID 33977234; details: HUVECs, 24 h of incubation; cited from earlier work
KLF4 = system: KLF4; parameters: method as in PMID 33977234; details: HUVECs, 24 h of incubation; cited from earlier work
[3] = pKa by potentiometric titration (Sirius T3); format: physicochemical; details: potentiometric titrations, means ± SD of three titrations
[4] = HEK293 cytotoxicity, resazurin cell viability assay; format: cell-based; details: human, HEK293 cells, means ± SD, n = 3
Experimental: Maintenance of HEK293 Cells. HEK293 cell lines (American Type Culture Collection (ATCC)) were cultured in Dulbecco's Modified Eagle Medium (DMEM, Invitrogen) supplemented with 10% heat-inactivated fetal bovine serum (FBS, Gibco) and penicillin-streptomycin (1%). Cells were kept at 37 °C and 5% CO2, and were passaged every 72 hours.
Resazurin Cell Viability Assay. The cytotoxicity in HEK293 cells were determined using a resazurin cell viability assay. Test compounds in DMSO were diluted to 100x desired final assay concentration (maximum concentration of 100 µM) in eight-point dose response. 1 µL of test compounds were plated in a 96-well clear bottom tissue culture microplate. 49 µL of cell culture media was added to each well. Cells were diluted to 4 x 10^5 cells/mL, and 50 µL of this cell suspension was seeded to each well for a total of 2 x 10^4 cells/well. The assay plate was kept at 37 °C and 5% CO 2 for either 4 or 48 hours. At the end of the incubation time, 20 µL of 0.5 mM resazurin sodium salt (Alfa Aesar) solution in PBS was added to each well. The assay plates were incubated further at 37 °C for 2 hours. Fluorescence was measured at 531 nm and 595 nm excitation and emission wavelengths, respectively, using a 2104 EnVision® multilabel plate reader. CC50 values were obtained using sigmoidal curved generated with Prism GraphPad (San Diego, CA). SD values are reported as the standard deviation of the CC50 values of 3 biological replicates. All

[5] = global fit across six or more inhibitor concentrations, means ± SD, n = 3

T1 sequence (O00522 417-736): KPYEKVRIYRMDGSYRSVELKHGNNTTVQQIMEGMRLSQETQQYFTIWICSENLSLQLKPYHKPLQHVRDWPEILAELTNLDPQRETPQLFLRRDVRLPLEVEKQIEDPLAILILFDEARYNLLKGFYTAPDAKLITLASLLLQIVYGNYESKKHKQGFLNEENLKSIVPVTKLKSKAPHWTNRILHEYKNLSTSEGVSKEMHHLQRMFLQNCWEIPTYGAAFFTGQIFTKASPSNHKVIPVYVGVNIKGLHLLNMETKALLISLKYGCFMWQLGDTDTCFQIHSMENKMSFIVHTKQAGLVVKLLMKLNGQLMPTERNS

difference in affinity, KRIT1 (FP assay) vs N-α-acetyl lysine (HEG1-KRIT1 PPI [2]; Ki for KRIT1 vs Kd for N-α-acetyl lysine): > 70,000 fold
IC50 (HEG1-KRIT1 PPI [2]; fluorescence polarization assay after 4 h of incubation, means ± SD, n = 3): 8.14 ± 0.82 µM
inhibition of HEG1-KRIT1 PPI upon co-incubation with free lysine (HEG1-KRIT1 PPI [2]; free lysine 50 μM in the assay buffer): did not meaningfully change
HEG1-KRIT1 PPI Assay kon (HEG1-KRIT1 PPI [2]; [5]): 14.4 ± 0.583 M⁻¹ s⁻¹
koff (HEG1-KRIT1 PPI [2]; [5]): 3.31e-05 s⁻¹
HEG1-KRIT1 PPI Assay kon (HEG1-KRIT1 PPI [2]; global fit across six or more inhibitor concentrations, means ± SD, n = 3, listed as HNA): 14.4 M⁻¹ s⁻¹
Ki (HEG1-KRIT1 PPI [2]; global fit, means ± SD, n = 3, unit in Figure 2E, read-out: HEG1-KRIT1 PPI Assay Ki (koff/kon)): 2.29 ± 0.44 µM
pKa [3]: 7.34 ± 0.02
SMILES: O=Cc1c(O)ccc2ccccc12 [Compound 1, 2-hydroxy-1-naphthaldehyde]
IC50 (HEG1-KRIT1 PPI [1]): 3.09 µM
KLF2 expression (KLF2): upregulation
KLF4 expression (KLF4): upregulation
CC50 at 48 h [4]: ~100 µM
